Laboratory results: BigSolDB 2.1

CC(=O)O[C@H]1CC[C@@]2(C)C(=CC[C@@H]3[C@@H]2CC[C@]2(C)C(C(C)=O)=CC[C@@H]32)C1
Conditions	solubility (mole fraction)
in acetone, 278.55 K	0.00427
in acetone, 281.35 K	0.0048
in acetone, 284.75 K	0.00538
in acetone, 288.65 K	0.00622
in acetone, 291.75 K	0.00678
in acetone, 293.95 K	0.00731
in acetone, 296.75 K	0.008
in acetone, 299.05 K	0.00875
in acetone, 301.55 K	0.00955
in acetone, 304.25 K	0.0105
in cyclohexane, 291.95 K	0.00212
in cyclohexane, 300.25 K	0.00314
in cyclohexane, 302.75 K	0.00363
in cyclohexane, 305.75 K	0.00426
in cyclohexane, 309.25 K	0.0049
in cyclohexane, 312.95 K	0.00574
in cyclohexane, 315.9 K	0.00662
in cyclohexane, 320.15 K	0.00767
in cyclohexane, 322.95 K	0.00878
in cyclohexane, 327.85 K	0.0112
in cyclohexane, 332.25 K	0.0135
in cyclohexane, 336.45 K	0.0162
in cyclohexane, 340.35 K	0.019
in ethanol, 285 K	0.00103
in ethanol, 289.85 K	0.00128
in ethanol, 292.6 K	0.00144
in ethanol, 294.95 K	0.00162
in ethanol, 297.65 K	0.00185
in ethanol, 300.95 K	0.0021
in ethanol, 304.55 K	0.0024
in ethanol, 307.55 K	0.00277
in ethanol, 310.55 K	0.00319
in ethanol, 314.15 K	0.00371
in ethanol, 317.55 K	0.00432
in ethanol, 321.35 K	0.00503
in ethanol, 324.55 K	0.00583
in ethanol, 327.05 K	0.0065
in methanol, 282.75 K	0.000402
in methanol, 286.85 K	0.000491
in methanol, 291.95 K	0.000632
in methanol, 295.15 K	0.000779
in methanol, 299.95 K	0.000965
in methanol, 303.85 K	0.00112
in methanol, 309.25 K	0.00142
in methanol, 312.15 K	0.0016
in methanol, 315.55 K	0.00185
in methanol, 318.35 K	0.00215
in methanol, 320.05 K	0.00231
